From patent publication US20070049564A1 (Wyeth, priority 2005, published 2007)
≈ marks a conversion by molar mass, not a printed value. Read-outs that look alike come from different tables or passages of the source.

Experiments:
E. coli GC 2270 = assay: MIC, broth microdilution; conditions: Escherichia coli, GC2270, E. coli GC 2270
S. aureus GC 6335 = assay: MIC, broth microdilution; conditions: Staphylococcus aureus, GC6335, S. aureus GC 6335
E. coli GC 2234 = assay: MIC, broth microdilution; conditions: Escherichia coli, GC2234, E. coli GC 2234
Staph. aureus Smith = assay: In vivo activity (oral, iv; ED50) against Staph. aureus Smith in mice
Method: Representative examples of compounds of Formula I were tested for the oral efficacy using S. aureus Smith in mice.

E. coli GC 2271 = assay: MIC, broth microdilution; conditions: Escherichia coli, GC2271, E. coli GC 2271
P. aeruginosa GC 2214 = assay: MIC, broth microdilution; conditions: Pseudomonas aeruginosa, GC2214, P. aeruginosa GC 2214
E. faecium GC 4556 = assay: MIC, broth microdilution; conditions: Enterococcus faecium, GC4556, E. faecium GC 4556
E. coli GC 2233 = assay: MIC, broth microdilution; conditions: Escherichia coli, GC2233, E. coli GC 2233
S. aureus GC 2216 = assay: MIC, broth microdilution; conditions: Staphylococcus aureus, GC2216, S. aureus GC 2216
c. albicans GC 3066 = assay: MIC, broth microdilution
S. pyogenes GC 4563 = assay: MIC, broth microdilution; conditions: Streptococcus pyogenes, GC4563, S. pyogenes GC 4563
E. faecalis GC 2242 = assay: MIC, broth microdilution; conditions: Enterococcus faecalis, GC2242, E. faecalis GC 2242
E. coli GC 2235 = assay: MIC, broth microdilution; conditions: Escherichia coli, GC2235, E. coli GC 2235
S. epidermidis GC 4935 = assay: MIC, broth microdilution; conditions: Staphylococcus epidermidis, GC4935, S. epidermidis GC 4935
S. aureus GC 1079 = assay: MIC, broth microdilution; conditions: Staphylococcus aureus, GC1079, S. aureus GC 1079
E. coli GC 4559 = assay: MIC, broth microdilution; conditions: Escherichia coli, GC4559, E. coli GC 4559
E. coli GC 2236 = assay: MIC, broth microdilution; conditions: Escherichia coli, GC2236, E. coli GC 2236
S. pneumoniae+ GC 4465 = assay: MIC, broth microdilution; conditions: Streptococcus pneumoniae, S. pneumoniae+ GC 4465
E. coli GC 1073 = assay: MIC, broth microdilution; conditions: Escherichia coli, GC1073, E. coli GC 1073
S. aureus GC 1131 = assay: MIC, broth microdilution; conditions: Staphylococcus aureus, GC1131, S. aureus GC 1131

Q: How did the MIC (E. coli GC 2270; Mouse Serum pre-incubation) turn out when `CCCN(CC(=O)Nc1cc(N(C)C)c2c(c1O)C(=O)C1=C(O)[C@]3(O)C(=O)C(C(N)=O)=C(O)[C@@H](N(C)C)[C@@H]3C[C@@H]1C2)C(=O)OCC(C)C` [Example 16, isobutyl 2-{[(5aR,6aS,7S,10aS)-9-(aminocarbonyl)-4,7-bis(dimethylamino)-1,8,10a,11-tetrahydroxy-10,12-dioxo-5,5a,6,6a,7,10,10a,12-octahydrotetracen-2-yl]amino}-2-oxoethyl(propyl)carbamate] was run?
A: > 64 µg/mL

Q: What about the MIC (E. coli GC 2270; Water pre-incubation) of the same compound?
A: > 64 µg/mL

Q: And the MIC (S. aureus GC 6335; Mouse Serum pre-incubation)?
A: 4 µg/mL (≈ 5.95 µM)

Q: What about the MIC (S. aureus GC 6335; Water pre-incubation) of the same compound?
A: 4 µg/mL (≈ 5.95 µM)

Q: And the MIC (E. coli GC 2234; Mouse Serum pre-incubation)?
A: > 64 µg/mL

Q: And the MIC (E. coli GC 2234; Water pre-incubation)?
A: > 64 µg/mL

Q: What about the ED50 (Staph. aureus Smith; Staphylococcus aureus, in Mus musculus, po, read-out: ED50 Staph Smith SOD) of the same compound?
A: > 32 mg/kg

Q: And the ED50 (Staph. aureus Smith; iv, read-out: ED50 Staph Smith SIV)?
A: > 2 mg/kg

Q: What about the MIC (E. coli GC 2271; Mouse Serum pre-incubation) of the same compound?
A: > 64 µg/mL

Q: And the MIC (E. coli GC 2271; Water pre-incubation)?
A: > 64 µg/mL

Q: And the MIC (P. aeruginosa GC 2214; Mouse Serum pre-incubation)?
A: > 64 µg/mL

Q: What about the MIC (P. aeruginosa GC 2214; Water pre-incubation) of the same compound?
A: > 64 µg/mL

Q: And the MIC (E. faecium GC 4556; Mouse Serum pre-incubation)?
A: 4 µg/mL (≈ 5.95 µM)

Q: And the MIC (E. faecium GC 4556; Water pre-incubation)?
A: 8 µg/mL (≈ 11.9 µM)

Q: What about the MIC (E. coli GC 2233; Mouse Serum pre-incubation) of the same compound?
A: > 64 µg/mL

Q: And the MIC (E. coli GC 2233; Water pre-incubation)?
A: > 64 µg/mL

Q: And the MIC (S. aureus GC 2216; Mouse Serum pre-incubation)?
A: 2 µg/mL (≈ 2.98 µM)

Q: And the MIC (S. aureus GC 2216; Water pre-incubation)?
A: 4 µg/mL (≈ 5.95 µM)

Q: What about the MIC (c. albicans GC 3066; Candida albicans, GC3066) of the same compound?
A: > 64 µg/mL

Q: What about the MIC (c. albicans GC 3066; c. albicans GC 3066, Water pre-incubation) of the same compound?
A: >64 UG/ML

Q: And the MIC (S. pyogenes GC 4563; Mouse Serum pre-incubation)?
A: 4 µg/mL (≈ 5.95 µM)

Q: What about the MIC (S. pyogenes GC 4563; Water pre-incubation) of the same compound?
A: 8 µg/mL (≈ 11.9 µM)

Q: What about the MIC (E. faecalis GC 2242; Mouse Serum pre-incubation) of the same compound?
A: 8 µg/mL (≈ 11.9 µM)

Q: And the MIC (E. faecalis GC 2242; Water pre-incubation)?
A: 8 µg/mL (≈ 11.9 µM)

Q: And the MIC (E. coli GC 2235; Mouse Serum pre-incubation)?
A: 16 µg/mL (≈ 23.8 µM)

Q: What about the MIC (E. coli GC 2235; Water pre-incubation) of the same compound?
A: 64 µg/mL (≈ 95.3 µM)

Q: What about the MIC (S. epidermidis GC 4935; Mouse Serum pre-incubation) of the same compound?
A: 8 µg/mL (≈ 11.9 µM)

Q: And the MIC (S. epidermidis GC 4935; Water pre-incubation)?
A: 8 µg/mL (≈ 11.9 µM)

Q: What about the MIC (S. aureus GC 1079; Mouse Serum pre-incubation) of the same compound?
A: 2 µg/mL (≈ 2.98 µM)

Q: And the MIC (S. aureus GC 1079; Water pre-incubation)?
A: 4 µg/mL (≈ 5.95 µM)

Q: And the MIC (E. coli GC 4559; Mouse Serum pre-incubation)?
A: > 64 µg/mL

Q: And the MIC (E. coli GC 4559; Water pre-incubation)?
A: > 64 µg/mL

Q: What about the MIC (E. coli GC 2236; Mouse Serum pre-incubation) of the same compound?
A: 64 µg/mL (≈ 95.3 µM)

Q: And the MIC (E. coli GC 2236; Water pre-incubation)?
A: > 64 µg/mL

Q: And the MIC (S. pneumoniae+ GC 4465; Mouse Serum pre-incubation)?
A: 8 µg/mL (≈ 11.9 µM)

Q: And the MIC (S. pneumoniae+ GC 4465; Water pre-incubation)?
A: 8 µg/mL (≈ 11.9 µM)

Q: What about the MIC (E. coli GC 1073; Mouse Serum pre-incubation) of the same compound?
A: > 64 µg/mL

Q: What about the MIC (E. coli GC 1073; Water pre-incubation) of the same compound?
A: > 64 µg/mL

Q: What about the MIC (S. aureus GC 1131; Mouse Serum pre-incubation) of the same compound?
A: 2 µg/mL (≈ 2.98 µM)

Q: What about the MIC (S. aureus GC 1131; Water pre-incubation) of the same compound?
A: 4 µg/mL (≈ 5.95 µM)
